Data reported in paper PMC10804683, “Identification of the pyridoxal 5′‐phosphate allosteric site in human pyridox(am)ine 5′‐phosphate oxidase” (Protein Science : A Publication of the Protein Society, 2024).
“Also recorded” adds a separate entry of the source.

Tests used:
[1] = molecular target: T1, human PNPO F48A/E50L/R258L variant (holo-enzyme) (Homo sapiens, UniProt Q9NVS9, E50L/F48A/R258L); experiment: PLP binding by FMN fluorescence changes, holo triple variant; details: 100 nM enzyme, read-out: PLP binding KD^FLUO
T1 construct: a main form corresponding to the entire protein; made in house; host or cells: E. coli BL21(DE3)
T1 sequence (Q9NVS9 1-261 F48A/E50L/R258L): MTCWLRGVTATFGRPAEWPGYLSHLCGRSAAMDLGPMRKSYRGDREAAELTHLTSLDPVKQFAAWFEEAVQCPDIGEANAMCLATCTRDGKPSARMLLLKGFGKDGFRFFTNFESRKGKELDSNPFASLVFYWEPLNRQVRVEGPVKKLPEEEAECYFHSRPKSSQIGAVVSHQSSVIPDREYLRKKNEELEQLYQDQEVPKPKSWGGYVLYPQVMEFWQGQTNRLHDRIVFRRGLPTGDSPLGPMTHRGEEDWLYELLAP
Source text: (§1) PLP binding to PNPO can be detected and quantitatively measured using differential scanning fluorimetry (DSF) and also by measuring FMN fluorescence changes. We had previously attributed DSF changes to PLP binding at the active site, while FMN fluorescence changes were attributed to PLP binding at the allosteric site (Barile et al., [2019], [2020]). Previous experiments carried out with the PNPO R161C variant, affecting a residue that is essential for substrate binding and catalysis (and therefore also for PLP binding at the active site), confirms that DSF measurements only report PLP binding at the active site (Barile et al., [2021]; Table 1). […] We expected to observe no FMN fluorescence changes upon titration of the variants with PLP. However, this was not the case, and the dissociation constant values obtained by observing the FMN fluorescence emission were only up to threefold larger in the variants with respect to wild type PNPO (Figure 3). […] To check the second possibility, we measured intrinsic fluorescence changes of wild type and variant apo‐forms (i.e., without FMN) upon PLP titration. […]
(§2) Analyses of PLP binding, based on FMN fluorescence increase observed upon binding of PLP to PNPO, were performed as described in Barile et al. ([2020]). […] Emission spectra were recorded from […], with excitation and emission slits set at 3 and 5 nm, respectively. […]

[2] = molecular target: T2, apo-PNPO F48A/E50L/R258L (Homo sapiens, UniProt Q9NVS9, E50L/F48A/R258L); experiment: PLP binding by intrinsic fluorescence, apo triple variant; details: excitation 280 nm, 100 nM enzyme
T2 construct: a main form corresponding to the entire protein; made in house; host or cells: E. coli BL21(DE3)
T2 sequence (Q9NVS9 1-261 F48A/E50L/R258L): T1 sequence (Q9NVS9 1-261 F48A/E50L/R258L)
Source text: as §1, §2

[3] = molecular target: T3, human PNPO F48A/E50L/R258L variant (Homo sapiens, UniProt Q9NVS9, E50L/F48A/R258L); experiment: PLP inhibition kinetics of PNP oxidation, triple variant; assay type: biochemical; details: Na-HEPES pH 7.6, 2 μM enzyme, PLP 0–16 μM
T3 construct: a main form corresponding to the entire protein; made in house; host or cells: E. coli BL21(DE3)
T3 sequence (Q9NVS9 1-261 F48A/E50L/R258L): T1 sequence (Q9NVS9 1-261 F48A/E50L/R258L)
Procedure: This is a general inhibition mechanism that takes into account the possibility of PLP binding to both the active and allosteric sites. PLP binding at the active site gives a complete, competitive inhibition, whereas PLP binding at the allosteric site yields a substrate‐enzyme‐PLP ternary complex that is still catalytically active, although k CAT is reduced by a coefficient whose value is around 0.15. A thorough inhibition kinetic characterization was carried out with the wild type, F48A, F48A/E50L/R258L, and F48A/E50L/H248N/R258L PNPO forms, so as to evaluate the effect of the variations on the allosteric properties of the enzyme. The initial velocity of PNP conversion into PLP was measured in Na‐HEPES buffer (in which PLP is allowed to accumulate) by varying substrate concentration at different, fixed exogenous PLP concentrations, using 2 μM enzyme. A series of saturation curves were obtained that were used to fit the Michaelis–Menten equation (Figure 5), acquiring apparent V MAX and K M values as a function of PLP concentration. […]
FIGURE 5 Characterization of PLP inhibition. Upper panels: The initial velocity of the reaction was measured with 2 μM wild type (a), and the F48A (b), F48A/E50L/R258L (c), and F48A/E50L/H248N/R258L (d) PNPO variants, varying PNP concentration while keeping exogenous PLP fixed at different concentrations (0, 0.25, 0.5, 1, 2, 4, 8, and 16 μM). […]

[4] = molecular target: human PNPO R161C variant; design: method as in Barile et al., [2021]; details: previous experiments, ref Barile et al., [2021]; cited from earlier work

SMILES: Cc1ncc(COP(=O)(O)O)c(C=O)c1O [PLP, pyridoxal 5′‐phosphate]
- Kd [1]: 1.38 ± 0.08 µM
- Apo-enzyme PLP binding KD^FLUO [2]: no change in fluorescence was observed; also recorded: No binding
- type of inhibition of PNP oxidation by PLP [3]: pure competitive inhibition
- PLP binding KD^DSF [4]: No binding
